Entries after “also recorded” stand apart in the source; their conditions may differ.
How the values were obtained:
[1] = test system: WT, WT/T1471A or Phe508delCFTR; experiment: CFTR bands B and C in BHK cells exposed to CHX or Brefeldin A; type: cell-based, human
Experimental: Baby hamster kidney cells (BHK) stably expressing human CFTR (hCFTR) either wild type (WT), or Phe508del, or WT T1471A were growth to reach 70–80% confluency. After 2 h-long treatment with 100 µg/mL cyclohexamide, cells were washed with PBS and incubated with 2 µM CX4945 or its vehicle for the indicated time. At each time-point cells were washed with ice-cold PBS, scraped from the plates, pelleted by centrifugation (1200 g for 5 min at room tempertaure) and lysed in a buffer containing 1% (v/v) Nonidet P40, 50 mM Tris/HCl (pH 7.5) and 150 mM NaCl with fresh protease inhibitor tablets (Roche), 1 µM Okadaic acid (Alexis) and phosphatases inhibitors cocktails 2 and 3 (Sigma). Cells were lysed by incubation on ice for 30 min and then the lysates were cleared by centrifugation at 17000 g for 30 min at 4°C. The supernatant was collected and subjected to protein concentration quantification.
Western blot analysis was performed as described in [14] using a modified Laemmli buffer containing 105 mM dithiothreitol (final concentration) to enhance the solubilization of CFTR. 20–30 µg of total proteins were separated on 4–12% precast NuPage® Bis-Tris gradient gels (Invitrogen) according to the manufacturer’s instructions and transferred on to Optitran BA-S 83 nitrocellulose membranes (Whatman) with a semi-dry blotter (Biometra) for 1 h at 150 mA. Membranes were saturated for 1 h with 5% skimmed milk in Tris-buffered saline (TBS) containing 0.2% Tween 20. Immunoblots were developed by enhanced chemiluminescence, detected on Kodak Image Station 440 cf and analyzed by the Kodak 1D image software. Tubulin was used as loading control.
Supplementary file pone.0074232.s004.tif: Figure S4 BHK cells expressing WT, WT/T1471A or Phe508delCFTR were exposed to either cycloheximide (CHX, 100 µg/ml) or Brefeldin A (BFA, 200 ng/ml). […] [a] Glozman R, Okiyoneda T, Mulvihill CM, Rini JM, Barriere H, Lukacs GL (2009) N-glycans are direct determinants of CFTR folding and stability in secretory and endocytic membrane traffic. J. Cell Biol. 184, 847–862. (TIF) Click here for additional data file.

[2] = target: T1, CK2 holoenzyme (CK2 α2β2) (Homo sapiens, UniProt P67870+P68400); experiment: Phosphorylation of CFTR C-terminal peptides by CK2 holoenzyme (33P incorporation); type: biochemical; conditions: pH 7.5, 50 µM [γ-33P]ATP, 10 min, 37°C; for Kprime / Khalf / Vmax: Figure 3C, allosteric (sigmoidal) model, GraphPad Prism; for Kprime: Kprime = Khalf^h, not equal to Km unless h = 1; for phosphorylation by CK2 holoenzyme: Tricine-SDS-PAGE, autoradiography, Figures 2A and 3
T1 construct: made in house; host or cells: Escherichia coli
Experimental: (§1) Human CK2, both the α-catalytic subunit and the α2β2-holoenzyme were expressed in Escherichia coli. CK2α2β2 holoenzyme was reconstituted by mixing pellets expressing CK2α and CK2β independently. Cells were lysed by French press at 4°C in Tris/HCl 25 mM, pH 8, NaCl 0.4 M, DTT 1 mM, proteases inhibitors cocktail (Roche). The soluble fraction obtained after 30 min centrifugation at 15000 g was applied on Heparin-Sepharose and the proteins were separated using a gradient elution (0.4–1 M NaCl). Fractions containing CK2 were further purified by size-exclusion chromatography using a buffer composed by Tris/HCl 25 mM, pH 8, NaCl 0.5 M, DTT 1 mM.
(§2) Recombinant mouse full length CFTR (mCFTR) was cloned, expressed and purified as described in [20]. A 42-mer peptide reproducing the C-terminal tail of human CFTR (residues 1439–1480) was expressed in Escherichia coli with an N-terminal His tag and purified using affinity chromatography (Talon) followed by cleavage of the His tag by thrombin. Further details are given in the Material S1.
Synthetic peptide encompassing the last 20 residues of human CFTR C-terminal domain ([…], residues 1461–1480) was obtained by solid phase peptide synthesis method using a multiple peptide synthesizer (SyroII, MultiSynTech GmbH) on p-Benzyloxybenzyl alcohol resin (100–200 mesh) HMP resin (Novabiochem). The fluoren-9-ylmethoxycarbonyl (Fmoc) strategy was used throughout the peptide chain assembly, utilizing O-(7-Azabenzotriazol-1-yl)-N,N,N′,N′-tetramethyluronium hexafluorophosphate (HATU) as coupling reagent. The side-chain protected amino acid building blocks used were: N-α-Fmoc-Nω-(2,2,4,6,7-pentamethyldihydrobenzofuran-5-sulfonyl)-L-arginine, N-α-Fmoc-γ-tert-butyl-L-glutamic acid, N-α-Fmoc-β-tert-butyl-L-aspartic acid, N-α-Fmoc-O-tert-butyl-L-threonine, N-α-Fmoc-Nε-(tert-butyloxycarbonyl)-L-lysine, N-α-Fmoc-N-γ-trityl-L-glutamine. Cleavage of the peptide was performed by reacting the peptidyl-resin with a mixture containing TFA/ethanedithiol/phenol 5% for 2.5 h. Crude peptide were purified by a preparative reverse phase HPLC. Molecular mass of the peptide were confirmed by mass spectroscopy on a MALDI TOF-TOF mass spectrometer (model 4800– AB Sciex). The purity (>90%) was evaluated by analytical reverse phase HPLC.
(§3) Peptides derived from human CFTR C-terminal region were phosphorylated by incubation in a 20-µl volume containing 50 mM Tris/HCl, pH 7.5, 10 mM MgCl2, 100 mM NaCl, and 50 µM [γ-^33P]ATP (specific radioactivity 1,500–2,000 cpm/pmol). The reaction was started by the addition of the indicated protein kinases. The reaction mixtures were incubated for 10 minutes at 37°C and stopped by the addition of 2× concentrated Tricine sample buffer (450 mM Tris HCl, pH 8.45, 12% (v/v) glycerol, 4% (w/v) SDS, 0.0025% (w/v) Coomassie Blue G, 0.0025% (w/v) Phenol Red and 105 mM DTT). Samples were separated on Tricine-SDS-PAGE following the Schägger’s protocol in a running buffer composed of 100 mM Tris/HCl, pH 8.3, 100 mM Tricine, 0.1% (w/v) SDS. ^33P incorporation was evaluated by gels autoradiography on PerkinElmer’s Cyclone Plus Storage Phosphor System. Initial rate data were analyzed with the program Prism (GraphPad Software, La Jolla, CA).

CK2 α-catalytic subunit = experiment: Phosphorylation of the 42-mer CFTR peptide by isolated CK2 α-catalytic subunit; type: biochemical, human; conditions: 0.4 µg peptide, pH 7.5, 50 µM [γ-33P]ATP, 10 min, 37°C, autoradiography, Figure 2A
Experimental: as §1
Recombinant mouse full length CFTR (mCFTR) was cloned, expressed and purified as described in [20]. […]
(§4) Peptides derived from human CFTR C-terminal region were phosphorylated by incubation in a 20-µl volume containing 50 mM Tris/HCl, pH 7.5, 10 mM MgCl2, 100 mM NaCl, and 50 µM [γ-^33P]ATP (specific radioactivity 1,500–2,000 cpm/pmol). […] Samples were separated on Tricine-SDS-PAGE following the Schägger’s protocol in a running buffer composed of 100 mM Tris/HCl, pH 8.3, 100 mM Tricine, 0.1% (w/v) SDS. ^33P incorporation was evaluated by gels autoradiography on PerkinElmer’s Cyclone Plus Storage Phosphor System. Initial rate data were analyzed with the program Prism (GraphPad Software, La Jolla, CA).

PLK2 = experiment: Phosphorylation of the 42-mer CFTR peptide by PLK2; type: biochemical; conditions: same conditions as with CK2 holoenzyme, Figure 2B
Excerpt: (§5) CK1 isoforms and PLK 2 and 3 were obtained as described in [21], and [22], respectively.
as §2
as §4, with “cpm/pmol). The reaction was started by the addition of the indicated protein kinases.” for “cpm/pmol).”

PLK3 = experiment: Phosphorylation of the 42-mer CFTR peptide by PLK3; type: biochemical; conditions: same conditions as with CK2 holoenzyme, Figure 2B
Excerpt: as §5, §2
as §4, with “cpm/pmol). The reaction was started by the addition of the indicated protein kinases.” for “cpm/pmol).”

CK1 = experiment: Phosphorylation of the 42 amino acid CFTR peptide by CK1; type: biochemical; conditions: not shown; listed as 42 amino acid peptide
Excerpt: as §5, §2
as §4, with “cpm/pmol). The reaction was started by the addition of the indicated protein kinases.” for “cpm/pmol).”

GCK/FAM20C = experiment: Phosphorylation of the 42 amino acid CFTR peptide by Golgi apparatus casein kinase; type: biochemical; conditions: not shown; listed as 42 amino acid peptide
Experimental: as §2, §3

[3] = CHX 100 µg/ml, 2 h, Figures 5 and S4
[4] = listed as 42 amino acid peptide
[5] = listed as 42 amino acid-long recombinant fragment

T1 sequence (P68400 whole entry): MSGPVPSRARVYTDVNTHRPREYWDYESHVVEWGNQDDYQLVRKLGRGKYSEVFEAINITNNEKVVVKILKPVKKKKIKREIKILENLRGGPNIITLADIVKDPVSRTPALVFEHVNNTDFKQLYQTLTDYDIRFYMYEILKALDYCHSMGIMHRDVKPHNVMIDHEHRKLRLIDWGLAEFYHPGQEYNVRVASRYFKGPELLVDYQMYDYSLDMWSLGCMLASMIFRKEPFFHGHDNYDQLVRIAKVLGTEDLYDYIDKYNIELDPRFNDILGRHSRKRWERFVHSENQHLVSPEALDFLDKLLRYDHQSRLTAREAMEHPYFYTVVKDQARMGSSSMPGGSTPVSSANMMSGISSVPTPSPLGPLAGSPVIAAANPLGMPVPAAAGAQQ
T1 sequence (P67870 whole entry): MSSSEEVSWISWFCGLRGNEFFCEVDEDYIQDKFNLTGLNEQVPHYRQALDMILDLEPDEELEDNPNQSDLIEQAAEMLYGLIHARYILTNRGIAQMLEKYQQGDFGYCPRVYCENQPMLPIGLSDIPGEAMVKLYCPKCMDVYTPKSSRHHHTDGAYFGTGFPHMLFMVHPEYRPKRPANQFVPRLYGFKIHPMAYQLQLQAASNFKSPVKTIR

C[C@@H]1C[C@@H]([C@H](O)CC2CC(=O)NC(=O)C2)C(=O)[C@@H](C)C1 [CHX, cycloheximide]
effect on CFTR band B (immature core-glycosylated, ER-resident) [1, 3]: fast and almost complete disappearance of band B; also recorded: attenuation/disappearance of the ER-resident band B of CFTR | effect on CFTR band C (mature fully glycosylated) [1, 3]: much slower; also recorded: the fully mature band C is not affected by CHX treatment

KPQIAALKEETEEEVQDTRL [CFTR[1461-1480], Synthetic peptide encompassing the last 20 residues of human CFTR C-terminal domain]
Kprime [2]: 1430 µM | Khalf [2]: 1290 µM | Vmax [2]: 1477 DLUx10^-6 | phosphorylation by CK2 holoenzyme ([2]; listed as shorter synthetic peptide encompassing Thr1471): also phosphorylated by CK2 albeit with lower efficiency | phosphorylation by CK2 holoenzyme ([2]; listed as synthetic peptide encompassing the last 20 residues of hCFTR): can also be phosphorylated by CK2 holoenzyme, although much less efficiently

CFTR[1439-1480]: 42-mer peptide reproducing the C-terminal tail of human CFTR (residues 1439–1480), expressed in Escherichia coli with N-terminal His tag, cleaved by thrombin (QAISPSDRVKLFPHRNSSKCKSKPQIAALKEETEEEVQDTRL; left off: His tag, N-terminal, cleaved)
Kprime [2]: 3.13 µM | Khalf [2]: 1.49 µM | Vmax [2]: 90.5 DLUx10^-6 | phosphorylation by CK2 holoenzyme [2, 4]: readily phosphorylated at Thr1471 | phosphorylation by CK2 holoenzyme [2, 5]: readily phosphorylated by CK2 holoenzyme | phosphorylation by CK2 holoenzyme ([2]; listed as recombinant fragment of human CFTR): readily phosphorylated, with favorable kinetics, at Thr1471 by CK2 holoenzyme | phosphorylation by isolated CK2 catalytic α-subunit (CK2 α-catalytic subunit; [4]): neither by its isolated catalytic subunit | phosphorylation by isolated CK2 catalytic α-subunit (CK2 α-catalytic subunit; [5]): not by the isolated catalytic α-subunit alone | phosphorylation by PLK2 (PLK2): very low as compared to that obtained with CK2 holoenzyme | phosphorylation by PLK2 (PLK2; [4]): nor by other acidophilic Ser/Thr kinases (CK1, PLK2/3, GCK/FAM20C); also recorded: a weak phosphorylation was observed | phosphorylation by PLK3 (PLK3): very low as compared to that obtained with CK2 holoenzyme | phosphorylation by PLK3 (PLK3; [4]): nor by other acidophilic Ser/Thr kinases (CK1, PLK2/3, GCK/FAM20C); also recorded: a weak phosphorylation was observed | phosphorylation by CK1 (CK1): nor by other acidophilic Ser/Thr kinases (CK1, PLK2/3, GCK/FAM20C); also recorded: unable to phosphorylate the 42 amino acid peptide | phosphorylation by GCK/FAM20C (GCK/FAM20C): nor by other acidophilic Ser/Thr kinases (CK1, PLK2/3, GCK/FAM20C); also recorded: unable to phosphorylate the 42 amino acid peptide

C[C@H]1CCC/C=C/[C@@H]2C[C@H](O)C[C@H]2[C@H](O)/C=C/C(=O)O1 [Brefeldin A]
effect on CFTR band B (immature core-glycosylated, ER-resident) ([1]; Brefeldin A 200 ng/ml, Figure S4): opposite effects on the fate of band B; also recorded: band B increases

Reference: PMC3776838, “Detection of Phospho-Sites Generated by Protein Kinase CK2 in CFTR: Mechanistic Aspects of Thr1471 Phosphorylation” (PLoS ONE, 2013)
